The values below come from patent US8957053B2, “Proliposomal testosterone formulations” (Tesorx Pharma, LLC, priority 2012, dated 2015).

SMILES strings stand for the structures.

The nature of data set [1]: Solubility of testosterone in various buffers. The data set is classed as physicochemical. As to conditions: phosphate buffer pH 6.80, 72 h at RT. On the procedure: The solubility of testosterone in different media was tested. An amount of testosterone (100 mg) was added to each of four glass vials containing 10 ml of either: a) HCl buffer (pH 1.20), b) Acetate buffer (pH 4.50), c) phosphate buffer solution (PBS) pH 6.80 and d) nano pure water. These samples were subjected for shaking in a water bath for 72 h at RT. The samples were suitably diluted and analyzed by the HPLC assay method described in Comparative Example 2. Solubility of testosterone was high in phosphate buffer pH 6.80.

Data set [2] can be described thus: Solubility in SLS after sonication. Conditions: 1% w/v SLS, sonication 10 min. The data set is classed as physicochemical. As for the experimental part:
Solubility of: a) 10 mg pure testosterone; and b) formulation PLF-2 equivalent to 10 mg testosterone in either 0.5%, 1%, or 2% SLS following sonication for 10 min. was determined. For these studies, 10 mg of pure testosterone was weighed and dissolved in either 100 ml of 0.5%, 1%, or 2% (w/v) SLS, respectively, in volumetric flasks. An amount of formulation PLF-2 that contained 10 mg of testosterone was weighed, and sample solutions were prepared in a similar way as that described above for the testosterone control. These solutions were subjected for sonication for 10 min in a bath sonicator. The samples were then filtered and diluted suitably in their respective concentrations of SLS. The amounts of soluble testosterone for each concentration of SLS was determined by using the HPLC assay method described in Comparative Example 2.

With `C[C@]12CC[C@H]3[C@@H](CCC4=CC(=O)CC[C@@]43C)[C@@H]1CC[C@@H]2O` [testosterone], the Solubility of testosterone result in data set [1] is “high”. Moreover, in data set [2], the testosterone solubility result is reported as “high testosterone solubility”.
